Measurements: PubChem BioAssay (NCI)
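Tested at 5 concentrations; 48 h exposure; 96-well plates; endpoints linearly interpolated, else capped at highest concentration. Definition used: TGI = concentration required for complete inhibition of growth.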

Assays:
Assay in all cases: NCI anticancer screen, dose series, 48 h
[1] = tested on: SN12C renal
[2] = tested on: A549 NSCLC
[3] = tested on: MDA-MB-435
[4] = tested on: MOLT-4 leukemia
[5] = tested on: TK-10 renal
[6] = tested on: 786-0 renal
[7] = tested on: MDA-N
[8] = tested on: SK-MEL-28 melanoma
[9] = tested on: CAKI-1 renal
[10] = tested on: SF-539 CNS
[11] = tested on: OVCAR-4 ovarian
[12] = tested on: CCRF-CEM leukemia
[13] = tested on: HCT-15 colon
[14] = tested on: OVCAR-5 ovarian
[15] = tested on: HT29 colon
[16] = tested on: HCC-2998 colon
[17] = tested on: HS 578T breast
[18] = tested on: SK-MEL-2 melanoma
[19] = tested on: SK-OV-3 ovarian
[20] = tested on: K-562 leukemia

| SMILES | TGI [1] | TGI [2] | TGI [3] | TGI [4] | TGI [5] | TGI [6] | TGI [7] | TGI [8] | TGI [9] | TGI [10] | TGI [11] | TGI [12] | TGI [13] | TGI [14] | TGI [15] | TGI [16] | TGI [17] | TGI [18] | TGI [19] | TGI [20] |
| --- | --- | --- | --- | --- | --- | --- | --- | --- | --- | --- | --- | --- | --- | --- | --- | --- | --- | --- | --- | --- |
| O=[N+]([O-])/C=C/c1cn(CCCCCCCCCCCCn2cc(/C=C/[N+](=O)[O-])c3ccccc32)c2ccccc12 | > 100 µM | > 100 µM | > 100 µM | > 100 µM | > 100 µM | > 100 µM | > 100 µM | > 100 µM | > 100 µM | > 100 µM | > 100 µM | > 100 µM | > 100 µM | > 100 µM | > 100 µM | > 100 µM | > 100 µM | > 100 µM | > 100 µM |  |
| Nc1[nH]c(=O)[nH]c(=O)c1Cc1cccc(Cl)c1 | > 100 µM | > 100 µM | > 100 µM |  | > 100 µM | > 100 µM | > 100 µM | > 100 µM | > 100 µM | > 100 µM | > 100 µM |  | > 100 µM | > 100 µM | > 100 µM | > 100 µM | > 100 µM | > 100 µM | > 100 µM | > 100 µM |
| O=C(O)CC12CC3CC(CC(O)(C3)C1)C2 | > 100 µM | > 100 µM | > 100 µM |  | > 100 µM | > 100 µM | > 100 µM | > 100 µM | > 100 µM | > 100 µM | > 100 µM |  | > 100 µM | > 100 µM | > 100 µM | > 100 µM | 59.9 µM | > 100 µM | > 100 µM | > 100 µM |
| c1cc(CN2CCNCCNCCNCC2)cc(CN2CCNCCNCCNCC2)c1 | > 100 µM | > 100 µM | > 100 µM | > 100 µM | > 100 µM | > 100 µM | > 100 µM | > 100 µM |  | > 100 µM | > 100 µM |  |  | > 100 µM | > 100 µM | > 100 µM | > 100 µM | > 100 µM | > 100 µM | > 100 µM |
| C=C[C@]1(O[Si](C)(C)C)C[C@@]2(C(=O)OCC)C(O)C(=O)N3CCc4cc(OC)c(OC)cc4[C@]312 (stereo partly drawn) | > 100 µM | > 100 µM | > 100 µM | > 100 µM | > 100 µM | > 100 µM | > 100 µM | > 100 µM | > 100 µM | > 100 µM | > 100 µM | > 100 µM | > 100 µM | > 100 µM | > 100 µM |  | > 100 µM | > 100 µM | > 100 µM | > 100 µM |
| Cc1ccc(/N=N/C(=NNC(=O)c2ccc(C)cc2)c2ccc(N(C)C)cc2)cc1 | 68.5 µM | 87.9 µM | 39.5 µM | > 100 µM | > 100 µM | > 100 µM | 46.1 µM | > 100 µM | 48.8 µM | > 100 µM | 54 µM |  | 91.2 µM | > 100 µM | 91.3 µM | 73.2 µM | > 100 µM | > 100 µM | 76.2 µM | > 100 µM |
| NC(=O)c1sc2nc3ccccc3n2c1N |  | > 100 µM | > 100 µM | > 100 µM | > 100 µM | > 100 µM | > 100 µM | > 100 µM | > 100 µM | 45.9 µM | > 100 µM | > 100 µM | > 100 µM | > 100 µM | > 100 µM | > 100 µM | > 100 µM | 99.2 µM | 89.4 µM |  |
| O=C(Nc1ccc2[nH]c(C(=O)N3CC(CCl)c4ccc([N+](=O)[O-])cc43)cc2c1)c1cc2ccccc2o1 (stereo not drawn) | > 1100 µM | > 1100 µM | > 1100 µM | > 1100 µM |  | > 1100 µM | > 1100 µM | > 1100 µM | > 1100 µM | > 1100 µM | > 1100 µM | > 1100 µM | > 1100 µM | > 1100 µM | > 1100 µM | > 1100 µM | > 1100 µM | > 1100 µM | > 1100 µM |  |
| C=C1C2CCC3(CCC4C5(C)CCCC4(C=[N+](CCO)C5)C3C2)C1O (stereo not drawn) | > 100 µM | > 100 µM | > 100 µM |  | > 100 µM | > 100 µM | > 100 µM | > 100 µM | > 100 µM | > 100 µM | > 100 µM | > 100 µM | > 100 µM | > 100 µM | > 100 µM | > 100 µM | > 100 µM | > 100 µM | > 100 µM |  |
| Cc1ccc(S(=O)(=O)NC(=O)Nc2cc(Cl)c(S(N)(=O)=O)cc2S(N)(=O)=O)cc1 | > 100 µM | > 100 µM | > 100 µM | > 100 µM | > 100 µM | > 100 µM | > 100 µM | > 100 µM | > 100 µM | > 100 µM | > 100 µM | > 100 µM | > 100 µM | > 100 µM | > 100 µM |  | > 100 µM | > 100 µM | > 100 µM | > 100 µM |
